Reference: article PMC6237183 (Nature structural & molecular biology, 2018)
Values joined by “and” are separate entries in the source; they are usually repeats but may differ in a detail not shown here. Identical values can stand only once. “Also recorded” adds a separate entry of the source. Like-named read-outs stand apart in the source and are kept apart here.

Assays:
5-HT2BR wild-type = 5-HT2BR wild-type (Homo sapiens, UniProt P41595); assay: Gq-mediated calcium flux FLIPR assay; conditions: for Gq calcium flux Emax: normalized to percent 5-HT stimulation; for EC50: agonist mode, N=3
5-HT2BR L362F^7.35 [1] = target: T1, 5-HT2BR L362F^7.35 (Homo sapiens, UniProt P41595, L362F); conditions: L362F^7.35 mutant
5-HT2BR L362F^7.35 [2] = target: T1, 5-HT2BR L362F^7.35; assay: BRET β-arrestin2 recruitment assay; conditions: L362F^7.35 mutant
5-HT2BR L362F^7.35 [3] = target: T1, 5-HT2BR L362F^7.35; assay: [3H]-LSD dissociation radioligand binding assay; conditions: L362F^7.35 vs WT
5-HT2BR L362A^7.35 = 5-HT2BR L362A^7.35 (Homo sapiens, UniProt P41595, L362A); assay: Gq-mediated calcium flux FLIPR assay; conditions: L362A^7.35 mutant, % 5-HT
5-HT2BR WT = 5-HT2BR WT (Homo sapiens, UniProt P41595); assay: β-Arrestin2 recruitment Tango assay
5-HT2BR L362F^7.35 [4] = target: T1, 5-HT2BR L362F^7.35; assay: Gq-mediated calcium flux FLIPR assay; conditions: L362F^7.35 mutant
5-HT2BR [5] = target: T2, 5-HT2BR (Homo sapiens, UniProt P41595); assay: Phosphoinositide; format: cell-based
5-HT2BR [6] = target: T2, 5-HT2BR; assay: BRET β-arrestin2 recruitment assay
5-HT2BR A225G^5.46 [7] = target: T3, 5-HT2BR A225G^5.46 (Homo sapiens, UniProt P41595, A225G); assay: [3H]-LSD competitive radioligand binding; conditions: A225G^5.46 mutant, relative to wild-type
5-HT2BR A225G^5.46 [8] = target: T3, 5-HT2BR A225G^5.46; assay: Gq-mediated calcium flux FLIPR assay; conditions: for Emax: read-out: Gq calcium flux Emax
5-HT2BR T140A^3.37 [9] = target: T4, 5-HT2BR T140A^3.37 (Homo sapiens, UniProt P41595, T140A); assay: β-Arrestin2 recruitment Tango assay; conditions: T140A^3.37 mutant
5-HT2BR T140V^3.37 [10] = target: T5, 5-HT2BR T140V^3.37 (Homo sapiens, UniProt P41595, T140V); conditions: T140V^3.37 mutant, relative to wild-type
5-HT2BR T140S^3.37 [11] = target: T6, 5-HT2BR T140S^3.37 (Homo sapiens, UniProt P41595, T140S); assay: [3H]-LSD competitive radioligand binding; conditions: T140S^3.37 mutant, relative to wild-type
5-HT2BR T140A^3.37 [12] = target: T4, 5-HT2BR T140A^3.37; assay: [3H]-LSD competitive radioligand binding; conditions: T140A^3.37 mutant, relative to wild-type
5-HT2BR T140S^3.37 [13] = target: T6, 5-HT2BR T140S^3.37; assay: Gq-mediated calcium flux FLIPR assay
5-HT2BR T140V^3.37 [14] = target: T5, 5-HT2BR T140V^3.37; assay: [3H]-LSD competitive radioligand binding; conditions: T140V^3.37 mutant, relative to wild-type
5-HT2BR A225S^5.46 [15] = target: T7, 5-HT2BR A225S^5.46 (Homo sapiens, UniProt P41595, A225S); assay: [3H]-LSD competitive radioligand binding; conditions: A225S^5.46 mutant, relative to wild-type
5-HT2BR A225S^5.46 [16] = target: T7, 5-HT2BR A225S^5.46; assay: Gq-mediated calcium flux FLIPR assay
5-HT2BR T140A^3.37 [17] = target: T4, 5-HT2BR T140A^3.37; conditions: T140A^3.37 mutant, relative to wild-type
[18] = read-out: Gq calcium flux EC50, 5-HT2BR wild-type

T2 sequence (P41595 whole entry): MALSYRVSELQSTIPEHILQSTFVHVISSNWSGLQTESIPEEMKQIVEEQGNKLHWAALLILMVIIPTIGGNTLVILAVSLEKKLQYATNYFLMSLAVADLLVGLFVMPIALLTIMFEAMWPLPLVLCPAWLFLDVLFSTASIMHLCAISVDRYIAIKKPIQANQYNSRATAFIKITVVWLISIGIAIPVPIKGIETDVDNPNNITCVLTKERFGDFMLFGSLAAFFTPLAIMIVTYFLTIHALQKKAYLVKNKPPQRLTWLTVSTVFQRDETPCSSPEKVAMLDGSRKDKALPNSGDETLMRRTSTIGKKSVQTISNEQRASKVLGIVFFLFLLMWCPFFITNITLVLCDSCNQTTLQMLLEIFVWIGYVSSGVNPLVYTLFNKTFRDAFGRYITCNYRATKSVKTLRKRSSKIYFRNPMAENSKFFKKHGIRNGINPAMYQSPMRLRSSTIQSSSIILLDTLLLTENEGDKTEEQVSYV
5-HT2BR wild-type, sequence (P41595 whole entry): as above
5-HT2BR WT, sequence (P41595 whole entry): as above
T5 sequence (P41595 whole entry T140V): as the sequence (P41595 whole entry) above, with T140V counted along it
T1 sequence (P41595 whole entry L362F): as the sequence (P41595 whole entry) above, with L362F counted along it
T3 sequence (P41595 whole entry A225G): as the sequence (P41595 whole entry) above, with A225G counted along it
T7 sequence (P41595 whole entry A225S): as the sequence (P41595 whole entry) above, with A225S counted along it
T6 sequence (P41595 whole entry T140S): as the sequence (P41595 whole entry) above, with T140S counted along it
T4 sequence (P41595 whole entry T140A): as the sequence (P41595 whole entry) above, with T140A counted along it
5-HT2BR L362A^7.35, sequence (P41595 whole entry L362A): as the sequence (P41595 whole entry) above, with L362A counted along it

Cc1ccc2[nH]c3c(c2c1)CCNC3Cc1ccccc1Cl (centres unmarked) [2-ClBenzyl]
Gq calcium flux Emax (5-HT2BR wild-type; 5-HT2BR wild-type): 28% | EC50 (5-HT2BR wild-type; [18]): 35 nM

CN1C[C@H](C(=O)N[C@]2(C)O[C@@]3(O)[C@@H]4CCCN4C(=O)[C@H](Cc4ccccc4)N3C2=O)C=C2c3cccc4[nH]cc(c34)C[C@H]21 [ERG, ergotamine]
Gq calcium flux agonist activity (5-HT2BR wild-type; 5-HT2BR wild-type): Gq partial agonists

CCN(CC)C(=O)[C@@H]1C=C2c3cccc4[nH]cc(c34)C[C@H]2N(C)C1 [LSD, lysergic acid diethylamide]
β-arrestin recruitment agonism (5-HT2BR L362F^7.35 [1]): abolished | Gq calcium flux agonist activity (5-HT2BR wild-type; 5-HT2BR wild-type): Gq partial agonists | Gq calcium flux Emax (5-HT2BR wild-type; 5-HT2BR wild-type): 82% and 79% | time-dependent recruitment of β-arrestin (5-HT2BR L362F^7.35 [2]): attenuated | faster dissociation rate compared to 5-HT2BR WT (5-HT2BR L362F^7.35 [3]): greater than 10 fold | Gq calcium flux Emax (5-HT2BR L362A^7.35): 67%

COc1ccc(CC2NCCc3c2[nH]c2ccc(C)cc32)c(Cl)c1OC (centres unmarked) [LY266097]
β-arrestin2 recruitment activity (5-HT2BR WT; 5-HT2BR WT): without detectable β-arrestin2 activity; also recorded: no β-arrestin2 recruitment activity | Gq calcium flux agonist activity (5-HT2BR wild-type; 5-HT2BR wild-type): modest Gq partial agonism | Gq calcium flux Emax (5-HT2BR wild-type; 5-HT2BR wild-type): 62% and 54% | EC50 (5-HT2BR wild-type; [18]): 37 nM and 41 nM | Gq agonist activity (5-HT2BR L362F^7.35 [4]): abolished | Gq function via PI hydrolysis (5-HT2BR [5]): Gq partial agonism | β-arrestin2 antagonism by BRET (5-HT2BR [6]): potent β-arrestin2 antagonism | β-arrestin2 recruitment by BRET (5-HT2BR [6]; real-time, across specific time points): At no tested time point did LY266097 display β-arrestin2 recruitment

COc1ccc(CC2NCCc3c2[nH]c2ccccc32)c(Cl)c1OC (centres unmarked) [des-methyl LY266097 analog]
Gq calcium flux Emax (5-HT2BR wild-type; 5-HT2BR wild-type): 93% | EC50 (5-HT2BR wild-type; [18]): 20 nM

CC[C@@H](CO)NC(=O)[C@@H]1C=C2c3cccc4[nH]cc(c34)C[C@H]2N(C)C1 [methylergonovine]
EC50 (5-HT2BR WT): 1.2 nM | binding affinity (5-HT2BR A225G^5.46 [7]): did not substantially affect | Gq calcium flux agonist activity (5-HT2BR wild-type; 5-HT2BR wild-type): Gq partial agonists | Gq calcium flux Emax (5-HT2BR wild-type; 5-HT2BR wild-type): 64% | EC50 (5-HT2BR wild-type; Gq calcium flux EC50, 5-HT2BR wild-type): 31 nM and 19 nM and 23 nM and 21 nM | EC50 (5-HT2BR A225G^5.46 [8]; Gq calcium flux EC50, A225G^5.46 mutant): 12 nM | Emax (5-HT2BR A225G^5.46 [8]): 55% | β-arrestin2 recruitment (5-HT2BR T140A^3.37 [9]): failed to recruit β-arrestin2 | Gq calcium flux agonism (5-HT2BR T140V^3.37 [10]): significantly diminished | binding affinity (5-HT2BR T140S^3.37 [11]): spared | binding affinity (5-HT2BR T140A^3.37 [12]): significantly diminished | EC50 (5-HT2BR T140S^3.37 [13]): 18 nM | Emax (5-HT2BR T140S^3.37 [13]; read-out: Gq calcium flux Emax): 64% | binding affinity (5-HT2BR T140V^3.37 [14]): significantly diminished | binding affinity (5-HT2BR A225S^5.46 [15]): did not substantially affect | EC50 (5-HT2BR A225S^5.46 [16]): 15 nM | Emax (5-HT2BR A225S^5.46 [16]; read-out: Gq calcium flux Emax): 58% | Gq calcium flux agonism (5-HT2BR T140A^3.37 [17]): significantly diminished

CC[C@@H](CO)NC(=O)[C@@H]1C=C2c3cccc4c3c(cn4C)C[C@H]2N(C)C1 [methysergide]
Gq calcium flux agonist activity (5-HT2BR wild-type; 5-HT2BR wild-type): lack of agonist activity | Emax (5-HT2BR A225G^5.46 [8]): 54% | Gq calcium flux agonism (5-HT2BR T140V^3.37 [10]): failed to demonstrate any measureable Gq agonist activity

Cc1ccc2[nH]c3c(c2c1)CCNC3Cc1ccccc1 (centres unmarked) [unsubstituted Benzyl]
Gq calcium flux agonist activity (5-HT2BR wild-type; 5-HT2BR wild-type): no detectible Gq agonist activity
